Test results taken from publication PMC10966990, “Rational design of a cyclohexanone dehydrogenase for enhanced α,β-desaturation and substrate specificity” (Chemical Science, 2024).

How the values were obtained:
[1] = biological target: T1, cyclohexanone dehydrogenase (CDH) (Alicycliphilus denitrificans, UniProt F4G7N3); experiment: DCPIP colour change assay; assay type: biochemical; settings: 0.25 uM enzyme, 2 mM substrate, 75 uM DCPIP, 20 mM Tris-HCl pH 7.8
T1 construct: gene Alide2_4318; full gene in pET28a, N-terminal His6 tag, E. coli BL21(DE3); dimer
Target sequence in this assay (F4G7N3 entry or part of it W94A, form open): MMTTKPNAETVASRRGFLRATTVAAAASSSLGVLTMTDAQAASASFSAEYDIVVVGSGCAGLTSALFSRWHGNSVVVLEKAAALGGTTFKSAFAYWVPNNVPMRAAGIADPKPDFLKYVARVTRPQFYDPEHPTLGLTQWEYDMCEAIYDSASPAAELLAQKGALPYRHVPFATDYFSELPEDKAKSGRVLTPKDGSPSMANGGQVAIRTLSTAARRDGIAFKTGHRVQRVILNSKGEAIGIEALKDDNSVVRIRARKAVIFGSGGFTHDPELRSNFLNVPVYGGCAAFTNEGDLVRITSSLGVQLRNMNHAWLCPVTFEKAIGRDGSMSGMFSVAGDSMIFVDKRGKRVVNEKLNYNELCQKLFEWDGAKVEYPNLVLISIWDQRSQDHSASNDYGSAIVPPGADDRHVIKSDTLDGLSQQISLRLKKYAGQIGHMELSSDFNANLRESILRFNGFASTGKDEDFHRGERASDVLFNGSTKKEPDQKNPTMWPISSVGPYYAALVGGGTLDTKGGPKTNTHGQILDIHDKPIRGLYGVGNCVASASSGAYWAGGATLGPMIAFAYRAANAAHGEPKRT

[2] = biological target: T2, cyclohexanone dehydrogenase (CDH) (Alicycliphilus denitrificans, UniProt F4G7N3, Y176F, form not given); experiment: X-ray crystal structure, […] A; assay type: binding; settings: crystals grown with 10 mM cyclohexanone; product modelled in active site next to FAD, further molecules elsewhere
T2 construct: gene Alide2_4318; full gene in pET28a, N-terminal His6 tag, E. coli BL21(DE3); dimer
T2 sequence (F4G7N3 entry or part of it Y176F, form open): as the sequence (F4G7N3 entry or part of it W94A, form open) above, with A94W, Y176F counted along it

[3] = biological target: T1, cyclohexanone dehydrogenase (CDH); experiment: X-ray crystal structure, […] A; assay type: binding; settings: covalent; C8M of FAD 1.84 A from S-gamma of Cys305
[4] = substrate: CC1(C)CCC(=O)CC1; experiment: purified protein; settings: pH 7.8
[5] = substrate: CC1CCCC(=O)C1; experiment: DCPIP reduction assay, Michaelis-Menten; assay type: biochemical, Alicycliphilus denitrificans; settings: 76 nM enzyme, 60 uM DCPIP, 20 mM Tris-HCl pH 7.8, low aqueous solubility of substrate, caution stated
[6] = substrate: O=C1CCCCC1; experiment: DCPIP reduction assay, Michaelis-Menten; assay type: biochemical, Alicycliphilus denitrificans; settings: 76 nM enzyme, 60 uM DCPIP, 20 mM Tris-HCl pH 7.8

Molecule: CC1CCCC(=O)C1 (stereo not shown) [compound 2, 3-methylcyclohexanone]
- DCPIP colour change assay [1]: The W113A variant showed highest activity on 3-methylcyclohexanone

Molecule: O=C1CCc2ccccc2O1 [compound 5, dihydrocoumarin]
- DCPIP colour change assay [1]: the W113A variant, but not WT CDH, with dihydrocoumarin

Molecule: O=C1C=CCCC1 [compound 10, 2-cyclohexen-1-one]
- X-ray crystal structure, 1.33 A [2]: 2-cyclohexen-1-one was subsequently modelled to produce the Y195F complex structure

Molecule: Cc1cc2nc3c(=O)[nH]c(=O)nc-3n(C[C@H](O)[C@H](O)[C@H](O)COP(=O)(O)OP(=O)(O)OC[C@H]3O[C@@H](n4cnc5c(N)ncnc54)[C@H](O)[C@@H]3O)c2cc1C [flavin adenine dinucleotide]
- X-ray crystal structure, 1.86 A [3]: The FAD cofactor was found to occupy a deep positively charged channel

B1: cyclohexanone dehydrogenase (CDH) (Alicycliphilus denitrificans K601) (protein)
chain: MMTTKPNAETVASRRGFLRATTVAAAASSSLGVLTMTDAQAASASFSAEYDIVVVGSGCAGLTSALFSRWHGNSVVVLEKAAALGGTTFKSAFWYWVPNNVPMRAAGIADPKPDFLKYVARVTRPQFYDPEHPTLGLTQWEYDMCEAIYDSASPAAELLAQKGALPYRHVPFATDYFSELPEDKAKSGRVLTPKDGSPSMANGGQVAIRTLSTAARRDGIAFKTGHRVQRVILNSKGEAIGIEALKDDNSVVRIRARKAVIFGSGGFTHDPELRSNFLNVPVYGGCAAFTNEGDLVRITSSLGVQLRNMNHAWLCPVTFEKAIGRDGSMSGMFSVAGDSMIFVDKRGKRVVNEKLNYNELCQKLFEWDGAKVEYPNLVLISIWDQRSQDHSASNDYGSAIVPPGADDRHVIKSDTLDGLSQQISLRLKKYAGQIGHMELSSDFNANLRESILRFNGFASTGKDEDFHRGERASDVLFNGSTKKEPDQKNPTMWPISSVGPYYAALVGGGTLDTKGGPKTNTHGQILDIHDKPIRGLYGVGNCVASASSGAYWAGGATLGPMIAFAYRAANAAHGEPKRT
notes: full gene in pET28a, N-terminal His6 tag, E. coli BL21(DE3); dimer
- Km [4]: 25.62 ± 7.68 mM
- Km [5]: 9.31 ± 1.99 mM
- Km [6]: 0.37 ± 0.04 mM
